Test system: SKOV3 cells
Test: In vitro combination of LLS2 with paclitaxel on SKOV3 cells
Type: cell-based
Conditions: SKOV3 cells, at particular concentrations
Text: C.I.<0.9 indicates synergism, C.I.=0.9-1.10 indicates additive interaction, and C.I.>1.1 indicates antagonism.
The synergistic effects of LLS2 with current chemotherapeutic drugs including docetaxel, paclitaxel, 5-Fu, oxaliplatin, carboplatin, doxorubicin and gemcitabine were examined in vitro.

Structure (SMILES) | cytotoxicity, single agent
CC(=O)O[C@H]1C(=O)[C@@]2(C)[C@H]([C@H](OC(=O)c3ccccc3)[C@]3(O)C[C@H](OC(=O)[C@H](O)[C@@H](NC(=O)c4ccccc4)c4ccccc4)C(C)=C1C3(C)C)[C@]1(OC(C)=O)CO[C@@H]1C[C@@H]2O [Paclitaxel, reference compound] | little effect

Test system: prostate cancer PC3 cancer cells
Test: not given
Conditions: not given

Structure (SMILES) | cytotoxicity, single agent
CC(=O)O[C@H]1C(=O)[C@@]2(C)[C@H]([C@H](OC(=O)c3ccccc3)[C@]3(O)C[C@H](OC(=O)[C@H](O)[C@@H](NC(=O)c4ccccc4)c4ccccc4)C(C)=C1C3(C)C)[C@]1(OC(C)=O)CO[C@@H]1C[C@@H]2O [Paclitaxel, reference compound] | moderate cytotoxicity

Test system: SKOV3
Test: Anti-cancer activity against ovarian cancer cells SKOV3 (cell killing in solution / in vitro cell proliferation)
Type: cell-based
Conditions: Homo sapiens, SK-OV-3, ovarian cancer cells SKOV3
Experimental: Biotinylated LLS2 was synthesized in solution and loaded it onto a streptavidin-coated plate. The biotinylated LLS2 immobilized on the plate killed approximately 21% of SKOV3 ovarian cancer cells at 100 μM loading, 16% at 50 μM and 14% at 25 μM (FIG. 4). The killing effect of the LLS2 compound was also tested in solution. […] In addition, LLS2 can kill pancreatic cancer cell line XPA3, prostate cancer cell line PC3, colon cancer cell line HT29, breast cancer cell line MCF7 and lung cancer cell line A549 (FIG. 4).

Structure (SMILES) | IC50 [µM]
CC(=O)OCCN(CCOC(C)=O)c1ccc(-c2nc3cc(C(CC(N)=O)NC(=O)Nc4ccc(C(F)(F)F)c(Cl)c4)ccc3n2Cc2ccc(F)c(F)c2)cc1 (stereo not shown) [LLS15, ((4-(5-(3-amino-1-(3-(3-chloro-4-(trifluoromethyl)phenyl)ureido)-3-oxopropyl)-1-(3,4-difluorobenzyl)-1H-benzo[d]imidazol-2-yl)phenyl)azanediyl)bis(ethane-2,1-diyl) Diacetate] | > 50
CC(=O)OCCN(CCOC(C)=O)c1ccc(-c2nc3cc(C(CC(N)=O)NC(=O)Nc4ccc(Cl)c(Cl)c4)ccc3n2Cc2ccc(F)c(F)c2)cc1 (stereo not shown) [LLS16, ((4-(5-(3-amino-1-(3-(3,4-dichlorophenyl)ureido)-3-oxopropyl)-1-(3,4-difluorobenzyl)-1H-benzo[d]imidazol-2-yl)phenyl)azanediyl)bis(ethane-2,1-diyl) Diacetate] | 35.1
CC(=O)OCCN(CCOC(C)=O)c1ccc(-c2nc3cc(C(CC(N)=O)NCc4ccc(Cl)c(Cl)c4)ccc3n2Cc2ccc(F)c(F)c2)cc1 (stereo not shown) [LLS17, ((4-(5-(3-amino-1-((3,4-dichlorobenzyl)amino)-3-oxopropyl)-1-(3,4-difluorobenzyl)-1H-benzo[d]imidazol-2-yl)phenyl)azanediyl)bis(ethane-2,1-diyl) Diacetate] | 10.6
NC(=O)CC(NC(=O)[C@@H](N)Cc1ccc(F)c(F)c1)c1ccc2c(c1)nc(-c1ccc(N(CCO)CCO)cc1)n2Cc1ccc(F)c(F)c1 (stereo partly drawn) [LLS18, (2S)-2-amino-N-(3-amino-1-(2-(4-(bis(2-hydroxyethyl)amino)phenyl)-1-(3,4-difluorobenzyl)-1H-benzo[d]imidazol-5-yl)-3-oxopropyl)-3-(3,4-difluorophenyl)propanamide] | > 50
NC(=O)CC(NCc1ccc(Cl)c(Cl)c1)c1ccc2c(c1)nc(-c1ccc(N(CCO)CCO)cc1)n2Cc1ccc(F)c(F)c1 (stereo not shown) [LLS19, 3-(2-(4-(bis(2-hydroxyethyl)amino)phenyl)-1-(3,4-difluorobenzyl)-1H-benzo[d]imidazol-5-yl)-3-((3,4-dichlorobenzyl)amino)propanamide] | 16.8
CC(=O)OCCN(CCOC(C)=O)c1ccc(-c2nc3cc(C(CC(N)=O)NCc4ccc(Cl)c(Cl)c4)ccc3n2Cc2ccc(Cl)c(Cl)c2)cc1 (stereo not shown) [LLS20, ((4-(5-(3-amino-1-((3,4-dichlorobenzyl)amino)-3-oxopropyl)-1-(3,4-dichlorobenzyl)-1H-benzo[d]imidazol-2-yl)phenyl)azanediyl)bis(ethane-2,1-diyl) Diacetate] | 7.5
CC(=O)OCCN(CCOC(C)=O)c1ccc(-c2nc3cc(C(CC(N)=O)NCc4ccc(Cl)c(Cl)c4)ccc3n2Cc2ccc(F)c(Cl)c2)cc1 (stereo not shown) [LLS21, ((4-(5-(3-amino-1-((3,4-dichlorobenzyl)amino)-3-oxopropyl)-1-(3-chloro-4-fluorobenzyl)-1H-benzo[d]imidazol-2-yl)phenyl)azanediyl)bis(ethane-2,1-diyl) Diacetate] | 8.9
CC(=O)OCCN(CCOC(C)=O)c1ccc(-c2nc3cc(C(N)CC(N)=O)ccc3n2Cc2ccc(C(F)(F)F)c(F)c2)cc1 (stereo not shown) [LLS22, ((4-(5-(1,3-diamino-3-oxopropyl)-1-(3-fluoro-4-(trifluoromethyl)benzyl)-1H-benzo[d]imidazol-2-yl)phenyl)azanediyl)bis(ethane-2,1-diyl) Diacetate] | > 50
CC(=O)OCCN(CCOC(C)=O)c1ccc(-c2nc3cc(C(CC(N)=O)NCc4ccc(Cl)c(Cl)c4)ccc3n2Cc2ccc(OC(F)(F)F)cc2)cc1 (stereo not shown) [LLS23, ((4-(5-(3-amino-1-((3,4-dichlorobenzyl)amino)-3-oxopropyl)-1-(4-(trifluoromethoxy)benzyl)-1H-benzo[d]imidazol-2-yl)phenyl)azanediyl)bis(ethane-2,1-diyl) Diacetate] | 8.4
NC(=O)CC(NCc1ccc(Cl)c(Cl)c1)c1ccc2c(c1)nc(-c1ccc(N3CCOCC3)cc1)n2Cc1ccc(OC(F)(F)F)cc1 (stereo not shown) [LLS24, 3-((3,4-dichlorobenzyl)amino)-3-(2-(4-morpholinophenyl)-1-(4-(trifluoromethoxy)benzyl)-1H-benzo[d]imidazol-5-yl)propanamide] | 40.1
CC(=O)OCCN(CCOC(C)=O)c1ccc(-c2nc3cc(C(CC(N)=O)N(Cc4ccc(Cl)c(Cl)c4)Cc4ccc(Cl)c(Cl)c4)ccc3n2CC23CC4CC(CC(C4)C2)C3)cc1 (stereo not shown) [LLS25, ((4-(1-(((1s,3s)-adamantan-1-yl)methyl)-5-(3-amino-1-(bis(3,4-dichlorobenzyl)amino)-3-oxopropyl)-1H-benzo[d]imidazol-2-yl)phenyl)azanediyl)bis(ethane-2,1-diyl) Diacetate] | 20.7
CC(=O)OCCN(CCOC(C)=O)c1ccc(-c2nc3cc(C(CC(N)=O)NCc4ccc(Cl)c(Cl)c4)ccc3n2CC23CC4CC(CC(C4)C2)C3)cc1 (stereo not shown) [LLS26, ((4-(1-(((1s,3s)-adamantan-1-yl)methyl)-5-(3-amino-1-((3,4-dichlorobenzyl)amino)-3-oxopropyl)-1H-benzo[d]imidazol-2-yl)phenyl)azanediyl)bis(ethane-2,1-diyl) Diacetate] | 10.5
NC(=O)CC(NCc1ccc(Cl)c(Cl)c1)c1ccc2c(c1)nc(-c1ccc(N(CCO)CCO)cc1)n2Cc1ccc(C(F)(F)F)c(F)c1 (stereo not shown) [LLS27, 3-(2-(4-(bis(2-hydroxyethyl)amino)phenyl)-1-(3-fluoro-4-(trifluoromethyl)benzyl)-1H-benzo[d]imidazol-5-yl)-3-((3,4-dichlorobenzyl)amino)propanamide] | > 50
NC(=O)CC(NCc1ccc(Cl)c(Cl)c1)c1ccc2c(c1)nc(-c1ccc(N(CCO)CCO)cc1)n2CC12CC3CC(CC(C3)C1)C2 (stereo not shown) [LLS28, 3-(1-(((1s,3s)-adamantan-1-yl)methyl)-2-(4-(bis(2-hydroxyethyl)amino)phenyl)-1H-benzo[d]imidazol-5-yl)-3-((3,4-dichlorobenzyl)amino)propanamide] | 16.1
NC(=O)CC(c1ccc2c(c1)nc(-c1ccc(N(CCO)CCO)cc1)n2CC12CC3CC(CC(C3)C1)C2)N(Cc1ccc(Cl)c(Cl)c1)Cc1ccc(Cl)c(Cl)c1 (stereo not shown) [LLS29, 3-(1-(((1s,3s)-adamantan-1-yl)methyl)-2-(4-(bis(2-hydroxyethyl)amino)phenyl)-1H-benzo[d]imidazol-5-yl)-3-(bis(3,4-dichlorobenzyl)amino)propanamide] | 25.5
NC(=O)CC(NCc1ccc(Cl)c(Cl)c1)c1ccc2c(c1)nc(-c1ccc(N(CCO)CCO)cc1)n2Cc1ccc(F)c(Cl)c1 (stereo not shown) [LLS31, 3-(2-(4-(bis(2-hydroxyethyl)amino)phenyl)-1-(3-chloro-4-fluorobenzyl)-1H-benzo[d]imidazol-5-yl)-3-((3,4-dichlorobenzyl)amino)propanamide] | 16.4
CC(=O)OCCN(CCO)c1ccc(-c2nc3cc(C(CC(N)=O)NCc4ccc(Cl)c(Cl)c4)ccc3n2CC23CC4CC(CC(C4)C2)C3)cc1 (stereo not shown) [LLS32, 2-((4-(1-(((1s,3s)-adamantan-1-yl)methyl)-5-(3-amino-1-((3,4-dichlorobenzyl)amino)-3-oxopropyl)-1H-benzo[d]imidazol-2-yl)phenyl)(2-hydroxyethyl)amino)ethyl Acetate] | 10.4
CC(=O)OCCN(CCO)c1ccc(-c2nc3cc(C(CC(N)=O)NCc4ccc(Cl)c(Cl)c4)ccc3n2Cc2ccc(Cl)c(Cl)c2)cc1 (stereo not shown) [LLS33, 2-((4-(5-(3-amino-1-((3,4-dichlorobenzyl)amino)-3-oxopropyl)-1-(3,4-dichlorobenzyl)-1H-benzo[d]imidazol-2-yl)phenyl)(2-hydroxyethyl)amino)ethyl Acetate] | 10
CC(=O)OCCN(CCO)c1ccc(-c2nc3cc(C(CC(N)=O)NCc4ccc(Cl)c(Cl)c4)ccc3n2Cc2ccc(F)c(Cl)c2)cc1 (stereo not shown) [LLS34, 2-((4-(5-(3-amino-1-((3,4-dichlorobenzyl)amino)-3-oxopropyl)-1-(3-chloro-4-fluorobenzyl)-1H-benzo[d]imidazol-2-yl)phenyl)(2-hydroxyethyl)amino)ethyl Acetate] | 8.9
CC(=O)OCCN(CCO)c1ccc(-c2nc3cc(C(CC(N)=O)NCc4ccc(Cl)c(Cl)c4)ccc3n2Cc2ccc(OC(F)(F)F)cc2)cc1 (stereo not shown) [LLS35, 2-((4-(5-(3-amino-1-((3,4-dichlorobenzyl)amino)-3-oxopropyl)-1-(4-(trifluoromethoxy)benzyl)-1H-benzo[d]imidazol-2-yl)phenyl)(2-hydroxyethyl)amino)ethyl Acetate] | 10.8
NC(=O)CC(NCc1ccc(Cl)c(Cl)c1)c1ccc2c(c1)nc(-c1ccc(N(CCO)CCO)cc1)n2Cc1ccc(OC(F)(F)F)cc1 (stereo not shown) [LLS36, 3-(2-(4-(bis(2-hydroxyethyl)amino)phenyl)-1-(4-(trifluoromethoxy)benzyl)-1H-benzo[d]imidazol-5-yl)-3-((3,4-dichlorobenzyl)amino)propanamide] | > 50
CC(=O)OCCN(CCOC(C)=O)c1ccc(CNC(CC(N)=O)c2ccc3c(c2)nc(-c2ccc(N(CCOC(C)=O)CCOC(C)=O)cc2)n3Cc2ccc(Cl)c(Cl)c2)cc1 (stereo not shown) [LLS37, ((4-(5-(3-amino-1-((4-(bis(2-acetoxyethyl)amino)benzyl)amino)-3-oxopropyl)-1-(3,4-dichlorobenzyl)-1H-benzo[d]imidazol-2-yl)phenyl)azanediyl)bis(ethane-2,1-diyl) Diacetate] | > 50
NC(=O)CC(NCc1ccc(N(CCO)CCO)cc1)c1ccc2c(c1)nc(-c1ccc(N(CCO)CCO)cc1)n2Cc1ccc(Cl)c(Cl)c1 (stereo not shown) [LLS38, 3-((4-(bis(2-hydroxyethyl)amino)benzyl)amino)-3-(2-(4-(bis(2-hydroxyethyl)amino)phenyl)-1-(3,4-dichlorobenzyl)-1H-benzo[d]imidazol-5-yl)propanamide] | > 50

Reference: patent US10844052B2, “LLS compounds for treatment of cancer” (THE REGENTS OF THE UNIVERSITY OF CALIFORNIA, priority 2016, dated 2020)
